Results reported in US20250275537A1, “CARBOXAMIDE APYRASE INHIBITORS” (Texas Crop Science, Inc., priority 2024, published 2025).

Test system: apyrase
Test: Apyrase inhibition assay (Method 1)
Assay type: biochemical
Conditions: inhibitor conc at 1 mM stock, 10 μl per well; 1 hr room temperature; rounded average of at least two assay results
Description: Apyrase inhibitors useful as enhancers of pesticidal activity are assessed using an in vitro assay. The method of Windsor, Bio Techniques 33:1024-1030 (November 2002) was used as follows
96 well plates were used for the assay: (Greiner bio-one: REF-655901-96 well, PS, F-bottom, Clear, Non-binding)
• Reaction Buffer: 60 mM Hepes, 3 mM MgCl2, 3 mM CaCl2 and 3 mM ATP (pH 6.5) • Development Buffer A: 2% aqueous ammonium molybdate • Development Buffer B: 11% ascorbic acid in 37.5% TCA in water • Stop buffer C: 2% trisodium citrate in 2% acetic acid solution in water • Add 100 μl of reaction buffer to each well. • Add 10 μl of DMSO (control) or inhibitor/compound or compounds such as N1915 or orthovanadate to each well. (use inhibitor conc at 1 mM; orthovanadate at 2 mM and N1915 at 1 mM) • Add 10 μl of apyrase (concentration based on optimization —Dilute 1 U/μl enzyme to different concentrations such as 0.1U, 0.05U, 0.0025, 0.001U, 0.0005U—to find a good range) • Incubate plate at room temperature for 1 hr • Mix development buffer A and B in the ratio of 1:1.5 (just before use). • Add 50 ul of A:B mix in each well (incubate for 2 mins) • Add 50 ul of C in each well • Measure/Read Absorbance of plate @630 nm
Inhibitory data for the apyrase assay described above are provided for selected compounds in Table 3. In Table 3, D indicates inhibition of <10%.
With reference to Table 3, percent inhibition of apyrase is reported as the rounded average of at least two assay results.

| SMILES | % Inhibition of Apyrase |
| --- | --- |
| O=C(NCc1ccccc1)c1ccccc1C(=O)NCc1ccccc1 [Compound I-30, N^1,N^2-dibenzylphthalamide] | C (C indicates inhibition of from 10% to 20%) |
| CN(C)C(=O)c1ccccc1C(=O)Nc1ccc2c(c1)OCCCO2 [Compound I-12, N^1-(3,4-dihydro-2H-benzo[b][1,4]dioxepin-7-yl)-N^2,N^2-dimethylphthalamide] | B (B indicates inhibition of from 20% to 30%) |
| CC(NC(=O)c1cccc(C(=O)Nc2ccccc2)c1)C(=O)N1CCS(=O)(=O)CC1 (centres unmarked) [Compound I-32, N^1-(1-(1,1-dioxidothiomorpholino)-1-oxopropan-2-yl)-N^3-phenylisophthalamide] | C (C indicates inhibition of from 10% to 20%) |
| O=C(Nc1ccc(N2CCCC2=O)cc1)c1ccc(C(=O)Nc2ccc(N3CCCC3=O)cc2)cc1 [Compound I-46, N^1,N^4-bis(4-(2-oxopyrrolidin-1-yl)phenyl)terephthalamide] | D (D indicates inhibition of <10%) |
| CNC(=O)c1cccc(C(=O)Nc2ccc3[nH]c(=O)sc3c2)c1 [Compound I-50, N^1-methyl-N^3-(2-oxo-2,3-dihydrobenzo[d]thiazol-6-yl)isophthalamide] | D (D indicates inhibition of <10%) |
| COC(C)(C)CNC(=O)c1ccc(C(=O)Nc2ccccc2)cc1 [Compound I-28, N^1-(2-methoxy-2-methylpropyl)-N^4-phenylterephthalamide] | C (C indicates inhibition of from 10% to 20%) |
| O=C(NCc1ncc[nH]1)c1ccc(C(=O)Nc2ccccc2)cc1 [Compound I-48, N^1-((1H-imidazol-2-yl)methyl)-N^4-phenylterephthalamide] | D (D indicates inhibition of <10%) |
| Cc1cnc(NC(=O)c2ccc(C(=O)Nc3ccccc3)cc2)[nH]1 [Compound I-38, N^1-(5-methyl-1H-imidazol-2-yl)-N^4-phenylterephthalamide] | D (D indicates inhibition of <10%) |
| Cc1cccc(CNC(=O)c2ccc(C(=O)Nc3cccc(-n4ccnn4)c3)cc2)c1 [Compound I-9, N^1-(3-(1H-1,2,3-triazol-1-yl)phenyl)-N^4-(3-methylbenzyl)terephthalamide] | A (A indicates inhibition above 30%) |
| Cc1ccc(NC(=O)c2ccc(C(=O)Nc3ccc(C)cc3)cc2)cc1 [Compound I-1, N^1,N^4-di-p-tolylterephthalamide] | A (A indicates inhibition above 30%) |
| Nc1ccnc(CNC(=O)c2ccc(C(=O)Nc3ccccc3)cc2)n1 [Compound I-55, N^1-((4-aminopyrimidin-2-yl)methyl)-N^4-phenylterephthalamide] | D (D indicates inhibition of <10%) |
| COc1ccccc1NC(=O)c1ccccc1C(=O)N(C)Cc1ccccc1 [Compound I-40, N^1-benzyl-N^2-(2-methoxyphenyl)-N1-methylphthalamide] | D (D indicates inhibition of <10%) |
| Cn1nc(Cn2c(=O)c3ccccc3c(=O)n2C)cc1Cl [Compound I-26, 2-((5-chloro-1-methyl-1H-pyrazol-3-yl)methyl)-3-methyl-2,3-dihydrophthalazine-1,4-dione] | C (C indicates inhibition of from 10% to 20%) |
| Cc1nncn1CCNC(=O)c1ccc(C(=O)Nc2ccccc2)cc1 [Compound I-49] | D (D indicates inhibition of <10%) |
| CC(C)n1cc2ccc(NC(=O)c3ccc4c(c3)C(=O)NC4=O)cc2n1 [Compound I-24, N-(2-isopropyl-2H-indazol-6-yl)-1,3-dioxoisoindoline-5-carboxamide] | C (C indicates inhibition of from 10% to 20%) |
| Nc1ccc(N2C(=O)c3ccccc3C2=O)c(Cl)c1 [Compound I-25, 2-(4-amino-2-chlorophenyl)isoindoline-1,3-dione] | C (C indicates inhibition of from 10% to 20%) |
| O=C(NCc1cccc(-n2ccnc2)c1)c1ccc(C(=O)Nc2ccccc2)cc1 [Compound I-27, N^1-(3-(1H-imidazol-1-yl)benzyl)-N^4-phenylterephthalamide] | C (C indicates inhibition of from 10% to 20%) |
